# Data reported in PubChem BioAssay (NCI).
#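 Results reflect a 48-hour exposure of cells in 96-well plates to compound at five concentrations. TGI marks complete inhibition of growth.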
# Tests used:
# Assay in all cases: NCI-60 cell line screen, 48 h
# 786-0 renal = system: 786-0 renal
# A549 NSCLC = system: A549 NSCLC
# BT-549 breast = system: BT-549 breast
# CCRF-CEM leukemia = system: CCRF-CEM leukemia
# COLO 205 colon = system: COLO 205 colon
# DU-145 prostate = system: DU-145 prostate
# EKVX NSCLC = system: EKVX NSCLC
# HCC-2998 colon = system: HCC-2998 colon
# HCT-116 colon = system: HCT-116 colon
# HCT-15 colon = system: HCT-15 colon
# HL-60(TB) leukemia = system: HL-60(TB) leukemia
# HOP-62 NSCLC = system: HOP-62 NSCLC
# HT29 colon = system: HT29 colon
# IGROV1 ovarian = system: IGROV1 ovarian
# K-562 leukemia = system: K-562 leukemia
# KM12 colon = system: KM12 colon
# LOX IMVI melanoma = system: LOX IMVI melanoma
# M14 melanoma = system: M14 melanoma
# MCF7 breast = system: MCF7 breast
# MDA-MB-231 breast = system: MDA-MB-231 breast
# MDA-MB-435 = system: MDA-MB-435
# MDA-N = system: MDA-N
# MOLT-4 leukemia = system: MOLT-4 leukemia
# NCI-H23 lung = system: NCI-H23 lung
# NCI-H460 lung = system: NCI-H460 lung
# NCI-H522 lung = system: NCI-H522 lung
# NCI/ADR-RES ovarian = system: NCI/ADR-RES ovarian
# OVCAR-3 ovarian = system: OVCAR-3 ovarian
# OVCAR-4 ovarian = system: OVCAR-4 ovarian
# OVCAR-5 ovarian = system: OVCAR-5 ovarian
# OVCAR-8 ovarian = system: OVCAR-8 ovarian
# PC-3 prostate = system: PC-3 prostate
# SF-268 CNS = system: SF-268 CNS
# SF-295 CNS = system: SF-295 CNS
# SF-539 CNS = system: SF-539 CNS
# SK-MEL-28 melanoma = system: SK-MEL-28 melanoma
# SK-MEL-5 melanoma = system: SK-MEL-5 melanoma
# SK-OV-3 ovarian = system: SK-OV-3 ovarian
# SN12C renal = system: SN12C renal
# SNB-19 CNS = system: SNB-19 CNS
# SNB-75 CNS = system: SNB-75 CNS
# SR leukemia = system: SR leukemia
# SW-620 colon = system: SW-620 colon
# T-47D breast = system: T-47D breast
# U251 CNS = system: U251 CNS
# UACC-257 melanoma = system: UACC-257 melanoma
# UACC-62 melanoma = system: UACC-62 melanoma
# UO-31 renal = system: UO-31 renal
# A498 renal = system: A498 renal
# ACHN renal = system: ACHN renal
# CAKI-1 renal = system: CAKI-1 renal
# NCI-H226 lung = system: NCI-H226 lung
# RPMI-8226 leukemia = system: RPMI-8226 leukemia
# SK-MEL-2 melanoma = system: SK-MEL-2 melanoma
# TK-10 renal = system: TK-10 renal
smiles,measurement,setting,value
SCCCSCCSCCCSCCS,TGI,786-0 renal,> 100 µM
same,TGI,A549 NSCLC,> 100 µM
same,TGI,BT-549 breast,> 100 µM
same,TGI,CCRF-CEM leukemia,> 100 µM
same,TGI,COLO 205 colon,> 100 µM
same,TGI,DU-145 prostate,> 100 µM
same,TGI,EKVX NSCLC,> 100 µM
same,TGI,HCC-2998 colon,> 100 µM
same,TGI,HCT-116 colon,> 100 µM
same,TGI,HCT-15 colon,> 100 µM
same,TGI,HL-60(TB) leukemia,> 100 µM
same,TGI,HOP-62 NSCLC,> 100 µM
same,TGI,HT29 colon,> 100 µM
same,TGI,IGROV1 ovarian,> 100 µM
same,TGI,K-562 leukemia,> 100 µM
same,TGI,KM12 colon,> 100 µM
same,TGI,LOX IMVI melanoma,> 100 µM
same,TGI,M14 melanoma,> 100 µM
same,TGI,MCF7 breast,> 100 µM
same,TGI,MDA-MB-231 breast,> 100 µM
same,TGI,MDA-MB-435,> 100 µM
same,TGI,MDA-N,> 100 µM
same,TGI,MOLT-4 leukemia,> 100 µM
same,TGI,NCI-H23 lung,> 100 µM
same,TGI,NCI-H460 lung,> 100 µM
same,TGI,NCI-H522 lung,> 100 µM
same,TGI,NCI/ADR-RES ovarian,> 100 µM
same,TGI,OVCAR-3 ovarian,> 100 µM
same,TGI,OVCAR-4 ovarian,> 100 µM
same,TGI,OVCAR-5 ovarian,> 100 µM
same,TGI,OVCAR-8 ovarian,> 100 µM
same,TGI,PC-3 prostate,> 100 µM
same,TGI,SF-268 CNS,> 100 µM
same,TGI,SF-295 CNS,> 100 µM
same,TGI,SF-539 CNS,> 100 µM
same,TGI,SK-MEL-28 melanoma,> 100 µM
same,TGI,SK-MEL-5 melanoma,> 100 µM
same,TGI,SK-OV-3 ovarian,> 100 µM
same,TGI,SN12C renal,> 100 µM
same,TGI,SNB-19 CNS,> 100 µM
same,TGI,SNB-75 CNS,> 100 µM
same,TGI,SR leukemia,> 100 µM
same,TGI,SW-620 colon,> 100 µM
same,TGI,T-47D breast,> 100 µM
same,TGI,U251 CNS,> 100 µM
same,TGI,UACC-257 melanoma,> 100 µM
same,TGI,UACC-62 melanoma,> 100 µM
same,TGI,UO-31 renal,> 100 µM
CCNC(=S)NNC(=O)c1csc(NC(=S)NC2CCCCC2)n1,TGI,786-0 renal,25.6 µM
same,TGI,A498 renal,40 µM
same,TGI,A549 NSCLC,67.8 µM
same,TGI,ACHN renal,89.8 µM
same,TGI,BT-549 breast,36.6 µM
same,TGI,CAKI-1 renal,31.1 µM
same,TGI,CCRF-CEM leukemia,> 100 µM
same,TGI,COLO 205 colon,21.9 µM
same,TGI,DU-145 prostate,45.8 µM
same,TGI,EKVX NSCLC,> 100 µM
same,TGI,HCC-2998 colon,23.8 µM
same,TGI,HCT-116 colon,18.8 µM
same,TGI,HCT-15 colon,37.2 µM
same,TGI,HOP-62 NSCLC,32.4 µM
same,TGI,HT29 colon,> 100 µM
same,TGI,KM12 colon,28 µM
same,TGI,LOX IMVI melanoma,21.4 µM
same,TGI,M14 melanoma,27.1 µM
same,TGI,MCF7 breast,> 100 µM
same,TGI,MDA-MB-231 breast,24.9 µM
same,TGI,MDA-MB-435,21.1 µM
same,TGI,MDA-N,15.8 µM
same,TGI,MOLT-4 leukemia,63.5 µM
same,TGI,NCI-H226 lung,> 100 µM
same,TGI,NCI-H23 lung,> 100 µM
same,TGI,NCI-H460 lung,35.2 µM
same,TGI,NCI/ADR-RES ovarian,42.4 µM
same,TGI,OVCAR-3 ovarian,16.2 µM
same,TGI,OVCAR-4 ovarian,56.9 µM
same,TGI,OVCAR-5 ovarian,> 100 µM
same,TGI,OVCAR-8 ovarian,28.1 µM
same,TGI,PC-3 prostate,64.5 µM
same,TGI,RPMI-8226 leukemia,71.6 µM
same,TGI,SF-268 CNS,31.4 µM
same,TGI,SF-295 CNS,40.7 µM
same,TGI,SF-539 CNS,22.8 µM
same,TGI,SK-MEL-2 melanoma,29.3 µM
same,TGI,SK-MEL-5 melanoma,15.5 µM
same,TGI,SK-OV-3 ovarian,62.3 µM
same,TGI,SN12C renal,17.3 µM
same,TGI,SNB-19 CNS,> 100 µM
same,TGI,SR leukemia,> 100 µM
same,TGI,SW-620 colon,19.2 µM
same,TGI,T-47D breast,53.7 µM
same,TGI,TK-10 renal,> 100 µM
same,TGI,U251 CNS,23.7 µM
same,TGI,UACC-257 melanoma,27.3 µM
same,TGI,UACC-62 melanoma,27.7 µM
same,TGI,UO-31 renal,23.1 µM
